# Assay results from ChEMBL document CHEMBL3885881, “DrugMatrix”.
# Species: Rattus norvegicus
# Assay: DrugMatrix - Regimen: Daily Repeat
# Assay type: toxicity, organism-based, Sprague-Dawley
# Set-up: regimen Daily Repeat, gender Male, age 6-8 weeks
# Conditions: in vivo, po, route oral GAVAGE, […]; for ABSOLUTE BASOPHIL / ABSOLUTE EOSINOPHIL / BASOPHIL / EOSINOPHIL / NUCLEATED RED BLOOD CELLS / ABSOLUTE LYMPHOCYTE / ABSOLUTE MONOCYTE / ABSOLUTE SEGMENTED NEUTROPHIL / ERYTHROCYTE COUNT / HEMATOCRIT / HEMOGLOBIN / LEUKOCYTE COUNT / LYMPHOCYTE / MEAN CORPUSCULAR HEMOGLOBIN / MEAN CORPUSCULAR HEMOGLOBIN CONCENTRATION / MEAN CORPUSCULAR VOLUME / MONOCYTE / NEUTROPHIL / PLATELET COUNT: tissue Blood; for ALANINE AMINOTRANSFERASE / ALBUMIN / ALKALINE PHOSPHATASE / ASPARTATE AMINOTRANSFERASE / BLOOD UREA NITROGEN / CARBON DIOXIDE / CHLORIDE / CHOLESTEROL / CREATINE PHOSPHOKINASE / CREATININE / GLUCOSE / LACTATE DEHYDROGENASE / LIPASE / PHOSPHORUS / POTASSIUM / SODIUM / TOTAL BILIRUBIN / TOTAL PROTEIN / URIC ACID: tissue Plasma
# [1] = 0 mg/kg, 72 h, dose level Control, time 3 day
# [2] = 0 mg/kg, 120 h, dose level Control, time 5 day
# [3] = 0.08 mg/kg, 72 h, dose level Low, time 3 day
# [4] = 0.08 mg/kg, 120 h, dose level Low, time 5 day
# [5] = 12 mg/kg, 72 h, dose level M1, time 3 day
compound,measurement,setting,value
C#C[C@]1(O)CC[C@H]2[C@@H]3CCC4=CC(=O)CC[C@@H]4[C@H]3CC[C@@]21C [NORETHINDRONE],ABSOLUTE BASOPHIL,[1],0 CELLS/uL
same,ABSOLUTE EOSINOPHIL,[1],14 CELLS/uL
same,BASOPHIL,[1],0%
same,EOSINOPHIL,[1],0.17%
same,NUCLEATED RED BLOOD CELLS,[1],0 /100WBC
same,ABSOLUTE BASOPHIL,[2],0 CELLS/uL
same,BASOPHIL,[2],0%
same,ABSOLUTE BASOPHIL,[3],0 CELLS/uL
same,ABSOLUTE EOSINOPHIL,[3],0 CELLS/uL
same,ABSOLUTE LYMPHOCYTE,[3],8095 CELLS/uL
same,ABSOLUTE MONOCYTE,[3],0 CELLS/uL
same,ABSOLUTE SEGMENTED NEUTROPHIL,[3],538.33 CELLS/uL
same,BASOPHIL,[3],0%
same,EOSINOPHIL,[3],0%
same,ERYTHROCYTE COUNT,[3],4.99 x10E6/uL
same,HEMATOCRIT,[3],31.97%
same,HEMOGLOBIN,[3],12.7 G/DL
same,LEUKOCYTE COUNT,[3],8.63 x10E3/uL
same,LYMPHOCYTE,[3],94.33%
same,MEAN CORPUSCULAR HEMOGLOBIN,[3],25.5 pg
same,MEAN CORPUSCULAR HEMOGLOBIN CONCENTRATION,[3],39.77 G/DL
same,MEAN CORPUSCULAR VOLUME,[3],64.07 fL
same,MONOCYTE,[3],0%
same,NEUTROPHIL,[3],5.67%
same,NUCLEATED RED BLOOD CELLS,[3],0 /100WBC
same,PLATELET COUNT,[3],1042.33 x10E3/uL
same,ALANINE AMINOTRANSFERASE,[3],76.33 u/L
same,ALBUMIN,[3],4.1 G/DL
same,ALKALINE PHOSPHATASE,[3],395.67 u/L
same,ASPARTATE AMINOTRANSFERASE,[3],84.33 u/L
same,BLOOD UREA NITROGEN,[3],13 mg/dL
same,CARBON DIOXIDE,[3],28 mmol/L
same,CHLORIDE,[3],101 MEQ/L
same,CHOLESTEROL,[3],81 mg/dL
same,CREATINE PHOSPHOKINASE,[3],236 u/L
same,CREATININE,[3],0.17 mg/dL
same,GLUCOSE,[3],185.33 mg/dL
same,LACTATE DEHYDROGENASE,[3],127 u/L
same,LIPASE,[3],24.67 u/L
same,PHOSPHORUS,[3],9.57 mg/dL
same,POTASSIUM,[3],5.52 MEQ/L
same,SODIUM,[3],144.63 MEQ/L
same,TOTAL BILIRUBIN,[3],0.1 mg/dL
same,TOTAL PROTEIN,[3],5.67 G/DL
same,URIC ACID,[3],0.77 mg/dL
same,ABSOLUTE BASOPHIL,[4],0 CELLS/uL
same,ABSOLUTE EOSINOPHIL,[4],0 CELLS/uL
same,ABSOLUTE LYMPHOCYTE,[4],11824 CELLS/uL
same,ABSOLUTE MONOCYTE,[4],160 CELLS/uL
same,ABSOLUTE SEGMENTED NEUTROPHIL,[4],1549.33 CELLS/uL
same,BASOPHIL,[4],0%
same,EOSINOPHIL,[4],0%
same,ERYTHROCYTE COUNT,[4],5.24 x10E6/uL
same,HEMATOCRIT,[4],32.97%
same,HEMOGLOBIN,[4],13 G/DL
same,LEUKOCYTE COUNT,[4],13.53 x10E3/uL
same,LYMPHOCYTE,[4],87%
same,MEAN CORPUSCULAR HEMOGLOBIN,[4],24.87 pg
same,MEAN CORPUSCULAR HEMOGLOBIN CONCENTRATION,[4],39.43 G/DL
same,MEAN CORPUSCULAR VOLUME,[4],63.07 fL
same,MONOCYTE,[4],1%
same,NEUTROPHIL,[4],12%
same,NUCLEATED RED BLOOD CELLS,[4],0 /100WBC
same,PLATELET COUNT,[4],1265.67 x10E3/uL
same,ALANINE AMINOTRANSFERASE,[4],76 u/L
same,ALBUMIN,[4],4.27 G/DL
same,ALKALINE PHOSPHATASE,[4],393 u/L
same,ASPARTATE AMINOTRANSFERASE,[4],91.67 u/L
same,BLOOD UREA NITROGEN,[4],10.67 mg/dL
same,CARBON DIOXIDE,[4],30 mmol/L
same,CHLORIDE,[4],98 MEQ/L
same,CHOLESTEROL,[4],68 mg/dL
same,CREATINE PHOSPHOKINASE,[4],173 u/L
same,CREATININE,[4],0.12 mg/dL
same,GLUCOSE,[4],150.67 mg/dL
same,LACTATE DEHYDROGENASE,[4],80.33 u/L
same,LIPASE,[4],33.67 u/L
same,PHOSPHORUS,[4],9.53 mg/dL
same,POTASSIUM,[4],5.88 MEQ/L
same,SODIUM,[4],144.2 MEQ/L
same,TOTAL BILIRUBIN,[4],0.1 mg/dL
same,TOTAL PROTEIN,[4],5.83 G/DL
same,URIC ACID,[4],0.63 mg/dL
same,ABSOLUTE BASOPHIL,[5],0 CELLS/uL
same,ABSOLUTE EOSINOPHIL,[5],0 CELLS/uL
same,ABSOLUTE LYMPHOCYTE,[5],6372.33 CELLS/uL
same,ABSOLUTE MONOCYTE,[5],130.67 CELLS/uL
same,ABSOLUTE SEGMENTED NEUTROPHIL,[5],463.67 CELLS/uL
same,BASOPHIL,[5],0%
same,EOSINOPHIL,[5],0%
same,ERYTHROCYTE COUNT,[5],5.18 x10E6/uL
same,HEMATOCRIT,[5],32.47%
same,HEMOGLOBIN,[5],12.27 G/DL
same,LEUKOCYTE COUNT,[5],6.97 x10E3/uL
same,LYMPHOCYTE,[5],90.33%
same,MEAN CORPUSCULAR HEMOGLOBIN,[5],23.7 pg
same,MEAN CORPUSCULAR HEMOGLOBIN CONCENTRATION,[5],37.8 G/DL
same,MEAN CORPUSCULAR VOLUME,[5],62.77 fL
same,MONOCYTE,[5],1.67%
same,NEUTROPHIL,[5],8%
same,NUCLEATED RED BLOOD CELLS,[5],0 /100WBC
same,PLATELET COUNT,[5],1187.33 x10E3/uL
same,ALANINE AMINOTRANSFERASE,[5],50 u/L
same,ALBUMIN,[5],4.47 G/DL
same,ALKALINE PHOSPHATASE,[5],371.33 u/L
same,ASPARTATE AMINOTRANSFERASE,[5],87.67 u/L
same,BLOOD UREA NITROGEN,[5],11.33 mg/dL
same,CARBON DIOXIDE,[5],34 mmol/L
same,CHLORIDE,[5],101.67 MEQ/L
same,CHOLESTEROL,[5],32.67 mg/dL
same,CREATINE PHOSPHOKINASE,[5],431.33 u/L
same,CREATININE,[5],0.19 mg/dL
same,GLUCOSE,[5],136.67 mg/dL
same,LACTATE DEHYDROGENASE,[5],119.33 u/L
same,LIPASE,[5],8.67 u/L
same,PHOSPHORUS,[5],11.1 mg/dL
same,POTASSIUM,[5],5.95 MEQ/L
